From patent US9012604B2, “Triazanonane derivatives or pharmaceutically acceptable salt thereof for enhanced fluorine-18 labeling” (Snur & DB Foundation, priority 2011, dated 2015)

System: human serum protein
Experiment: Human serum protein binding measurement
Type: in vitro ADME
Conditions: compared with NO2A compound
Procedure: The labeling compounds were cultured in human serum (1 mL) at 37° C. for 10 min and 60 min, and loaded to PD-10 column (pre-conditioned with 1 mL of 1% BSA/0.1 M DTPA), swept under stream of PBS into 30 test tubes by 0.5 mL fractions each. The radioactivity of each test tube was measured with gamma counter, and […] of sample was collected from the respective test tubes. After impression on the paper filter and staining with Coomassie blue, the protein peaks were observed. By plotting a curve of radioactivity of the respective fractions and calculating protein binding percent, the result was obtained as shown in Table 3.

binding to human serum protein relative to NO2A compound: three times higher
SMILES: O=C(O)CCCN1CCN(CC(=O)O)CCN(CC(=O)O)CC1 [Example 1, 4,7-bis(carboxymethyl)-1,4,7-triazonane-1-butyric acid]
